Results on one compound are retold here after ChEMBL document CHEMBL4699540, “Discovery and structure activity relationships of 7-benzyl triazolopyridines as stable, selective, and reversible inhibitors of myeloperoxidase” (Bioorg Med Chem, 2020).

Some results are limits rather than exact numbers.

Data set [1] can be described thus: Binding affinity to human neutrophil MPO delta (1-95) measured for 5 mins by SPR assay. (In general: SPR reads the build-up and loss of mass on a sensor chip optically.)
The target in data set [2] is T1, Methylated-DNA--protein-cysteine methyltransferase (Homo sapiens, UniProt P16455).
T1 sequence (P16455 whole entry): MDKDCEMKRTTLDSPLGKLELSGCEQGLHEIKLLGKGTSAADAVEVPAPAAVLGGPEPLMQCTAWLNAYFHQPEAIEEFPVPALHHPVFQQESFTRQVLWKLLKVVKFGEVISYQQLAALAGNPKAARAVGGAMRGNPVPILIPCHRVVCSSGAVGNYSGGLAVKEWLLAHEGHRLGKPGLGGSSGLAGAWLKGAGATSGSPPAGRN
The data set is described as follows: Inhibition of human MGMT using 06-benzylguanine as substrate incubated for 30 mins by LC/MS analysis. The note with it: 0.5 h.

Data set [3] is described as follows: Stability of compound at pH 1 assessed as half life. The note with it: buffer. It is filed as physicochemical.
Data set [4] is described as follows: Metabolic stability in human liver microsomes assessed as compound remaining. It is filed as ADME, Microsome. Background: Microsomes from liver hold many membrane-bound enzymes, among them those of drug oxidation.
A short description of data set [5]: Metabolic stability in rat liver microsomes assessed as compound remaining. The format is ADME, Microsome.
A short description of data set [6]: Permeability of compound at pH 7.4 by PAMPA assay. It is filed as ADME. The note with it: read-out: permeability. A general note: The PAMPA barrier holds no transporters, so it reflects passive diffusion.
Data set [7] can be described thus: Cmax in CD-1 mouse at 3 mg/kg, po by LC/MS analysis. The format is ADME, organism-based. On the set-up: route oral, dose 3 mg/kg. The note with it: in vivo.
A short description of data set [8]: Half life in CD-1 mouse at 3 mg/kg, po by LC/MS analysis. The format is ADME, organism-based. The note with it: in vivo.
A short description of data set [9]: Protein binding in mouse plasma assessed as free fraction. It is filed as ADME, cell-free.
The next data set addresses T2, Eosinophil peroxidase (Homo sapiens, UniProt P11678).
T2 sequence (P11678 whole entry): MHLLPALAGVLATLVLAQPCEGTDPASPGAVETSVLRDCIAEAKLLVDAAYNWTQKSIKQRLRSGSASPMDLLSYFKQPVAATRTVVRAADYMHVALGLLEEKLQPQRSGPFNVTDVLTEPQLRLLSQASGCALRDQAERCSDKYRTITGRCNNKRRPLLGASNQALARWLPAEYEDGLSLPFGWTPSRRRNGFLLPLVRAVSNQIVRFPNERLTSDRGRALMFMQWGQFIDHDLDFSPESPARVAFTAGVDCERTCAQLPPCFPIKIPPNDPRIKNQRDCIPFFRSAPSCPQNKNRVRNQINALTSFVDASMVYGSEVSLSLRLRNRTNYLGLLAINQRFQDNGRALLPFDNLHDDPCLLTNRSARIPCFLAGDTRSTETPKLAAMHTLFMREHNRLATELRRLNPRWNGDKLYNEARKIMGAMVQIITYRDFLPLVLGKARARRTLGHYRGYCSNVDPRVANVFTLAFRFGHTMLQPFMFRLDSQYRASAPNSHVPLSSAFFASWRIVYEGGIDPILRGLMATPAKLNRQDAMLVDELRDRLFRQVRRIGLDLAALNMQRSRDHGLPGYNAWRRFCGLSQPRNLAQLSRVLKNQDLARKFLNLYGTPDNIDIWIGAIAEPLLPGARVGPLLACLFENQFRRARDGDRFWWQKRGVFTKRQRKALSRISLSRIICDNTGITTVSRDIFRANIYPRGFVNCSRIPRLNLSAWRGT
Description: Inhibition of human EPX bromination activity using tyrosine as substrate by measuring 3-bromo tyrosine formation incubated for 10 mins.

A further data set deals with T3, Myeloperoxidase (Mus musculus, UniProt P11247).
T3 sequence (P11247 whole entry): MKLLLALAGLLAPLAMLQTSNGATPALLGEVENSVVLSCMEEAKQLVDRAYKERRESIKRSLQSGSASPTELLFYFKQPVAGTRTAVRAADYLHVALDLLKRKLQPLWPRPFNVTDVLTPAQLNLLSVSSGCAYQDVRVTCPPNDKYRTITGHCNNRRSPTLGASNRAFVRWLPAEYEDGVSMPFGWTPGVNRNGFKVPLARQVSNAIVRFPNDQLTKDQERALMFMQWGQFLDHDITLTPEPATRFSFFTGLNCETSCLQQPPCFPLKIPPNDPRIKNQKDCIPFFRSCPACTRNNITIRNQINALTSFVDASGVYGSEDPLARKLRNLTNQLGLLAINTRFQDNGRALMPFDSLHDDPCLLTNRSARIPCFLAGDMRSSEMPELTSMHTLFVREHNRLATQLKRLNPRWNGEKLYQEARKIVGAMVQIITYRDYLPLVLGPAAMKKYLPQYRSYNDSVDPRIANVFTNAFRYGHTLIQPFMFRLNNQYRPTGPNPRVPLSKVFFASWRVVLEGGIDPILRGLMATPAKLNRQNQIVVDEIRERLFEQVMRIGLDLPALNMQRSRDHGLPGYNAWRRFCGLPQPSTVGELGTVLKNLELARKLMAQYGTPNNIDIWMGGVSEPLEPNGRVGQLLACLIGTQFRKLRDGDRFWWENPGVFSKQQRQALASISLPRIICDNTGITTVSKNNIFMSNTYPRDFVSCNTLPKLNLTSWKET
The data set is described as follows: Inhibition of PMA-induced MPO in mouse Neutrophil incubated for 3 mins by luminometry. The format is tissue-based.

A short description of data set [10]: Plasma concentration in human MPO transgenic thioglycollate-induced peritonitis mouse model at 30 mg/kg, po measured after 6 hrs by LC/MS analysis. The format is ADME, organism-based.
A short description of another data set: animal or person. The note with it: Mus musculus, po, 6 h, read-out: INH.

`Nc1cc(Cc2ccccc2)c2nn[nH]c2n1` returned a Kd in data set [1] of 32 nM. Moreover, the “inhibition (INH)” value in data set [2] was “Not Active”. For the same compound, the half-life in data set [3] was above 100 h; in [8], 2 h. The Stabilty was determined as 98% in [4] and 86% in data set [5]. In addition, the Papp in [6] stood at 31.3 ×10⁻⁶ cm/s. The compound further yielded a Cmax in [7] of 13 µM. Further, the fraction unbound in data set [9] worked out at 0.36. In addition, the IC50 was determined as 32 nM at Eosinophil peroxidase and 9500 nM at Myeloperoxidase. In data set [10], this compound had a concentration at 6 h of 26 µM. In “animal or person”, the inhibition in vivo at 30 mg/kg came out at 55%.

For orientation: Kd means a measure of binding affinity in units of concentration. Read a high Kd as weaker binding. The half-life is the time in which the quantity being followed falls by half. By Cmax is commonly meant the peak of the concentration-time curve. As usually defined, the fraction unbound is the share of the substance not bound to proteins or other matrix. The term IC50 denotes the concentration needed to halve the response being measured. A low value points to inhibition by little substance.
